Reference: paper doi:10.1101/2025.05.02.651384v1 (biorxiv, 2025)

Tests used:
[1] = biological target: T1, HCAR1 (GPR81) (Homo sapiens, UniProt Q9BXC0); experiment: ebBRET Gαz activation; type: cell-based
[2] = biological target: T1, HCAR1 (GPR81); experiment: ebBRET Gαi2 activation; type: cell-based; conditions: Gαi2, 37 °C, agonist

T1 sequence (Q9BXC0 whole entry): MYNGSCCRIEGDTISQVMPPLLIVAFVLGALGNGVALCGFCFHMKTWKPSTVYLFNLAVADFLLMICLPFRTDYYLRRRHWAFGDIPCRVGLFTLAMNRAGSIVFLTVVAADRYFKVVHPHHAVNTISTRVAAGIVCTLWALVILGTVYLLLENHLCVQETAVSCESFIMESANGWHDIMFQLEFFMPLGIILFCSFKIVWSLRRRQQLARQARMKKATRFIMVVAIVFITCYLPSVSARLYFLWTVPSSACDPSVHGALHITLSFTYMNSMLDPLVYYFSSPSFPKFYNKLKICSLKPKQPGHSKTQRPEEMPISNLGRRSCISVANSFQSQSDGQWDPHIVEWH

Row | SMILES | EC50 [1] [µM] | EC50 [2] [µM]
1 | O=C(O)c1cc(O)cc(O)c1 [3,5-DHBA] | 0.2 | –
2 | C[C@H](O)C(=O)O [(+)-lactic acid] | 1000 | –
3 | CCOc1cc(Cl)c(C(=O)NC(=O)Nc2ncc(C)s2)cc1N1CCOCC1 [AZ2053] | – | 1.78
4 | CCOc1cc(Cl)c(C(=O)NC(=O)Nc2nc3c(s2)CN(C(C)=O)CC3)cc1N1CCOCC1 [AZ4901] | – | 7.1
5 | CCOc1cc(Cl)c(C(=O)NC(=O)Nc2nc3c(s2)CCCC3)cc1N1CCOCC1 [AZ9091] | – | 2
6 | CCOc1cc(Cl)c(-c2ccc(-c3nc4ccccc4s3)c(=O)[nH]2)cc1N1CCOCC1 [AZ9234] | – | 6.8
7 | CN1CCN(C(=O)Cc2sc(NC(=O)[C@H]3CC[C@H](C)CC3)nc2-c2cccs2)CC1 [GPR81 agonist 1] | 0.63 | –
